Data published in ChEMBL document CHEMBL1152756, “Photodynamic effects of novel 5,15-diaryl-tetrapyrrole derivatives on human colon carcinoma cells” (Bioorg Med Chem, 2009).
Values after ≈ are worked out from the molar mass of the structure shown. Active and inactive are the calls of the source. No cut-off for these calls is given here.

Columns and labels:
[1] = test system: HCT-116; assay: Cell cycle arrest in human HCT116 cells assessed as accumulation at S phase at IC50 after 24 hrs irradiated with tungsten-halogen white light for 2 hrs followed by incubation in drug free medium for 24 hrs by flow cytometry; format: functional
[2] = test system: HCT-116; assay: Cell cycle arrest in human HCT116 cells assessed as accumulation at G1 phase at IC50 after 24 hrs irradiated with tungsten-halogen white light for 2 hrs followed by incubation in drug free medium for 24 hrs by flow cytometry; format: functional
[3] = test system: HCT-116; assay: Induction of apoptosis in human HCT116 cells assessed as decrease in Bcl2 protein expression at IC50 after 24 hrs irradiated with tungsten-halogen white light for 2 hrs followed by incubation in drug free medium for 24 hrs […]; format: functional, cell-based
[4] = test system: HCT-116; assay: Cell cycle arrest in human HCT116 cells assessed as accumulation at G2/M phase at IC50 after 24 hrs irradiated with tungsten-halogen white light for 2 hrs followed by incubation in drug free medium for 24 hrs by flow cytometry; format: functional
[5] = test system: HCT-116; assay: Induction of apoptosis in human HCT116 cells at IC50 after 24 hrs irradiated with tungsten-halogen white light for 2 hrs followed by incubation in drug free medium for 24 hrs using annexin V-FITC staining by FACS; format: functional, cell-based
[6] = test system: HCT-116; assay: Induction of apoptosis in human HCT116 cells assessed as decrease in survivin protein expression at IC50 after 24 hrs irradiated with tungsten-halogen white light for 2 hrs followed by incubation in drug free medium for 24 hrs […]; format: functional, cell-based
[7] = test system: HCT-116; assay: Induction of apoptosis in human HCT116 cells assessed as increase in Bax protein expression at IC50 after 24 hrs irradiated with tungsten-halogen white light for 2 hrs followed by incubation in drug free medium for 24 hrs […]; format: functional, cell-based
[8] = test system: HCT-116; assay: Phototoxicity against human HCT116 cells […] after 24 hrs irradiated with LED red light for 2 hrs followed by incubation in drug free medium for 24 hrs by MTT assay; format: functional, cell-based; settings: HCT-116, light or radiation study
[9] = test system: HCT-116; assay: Phototoxicity against human HCT116 cells […] after 24 hrs irradiated with tungsten-halogen white light for 2 hrs followed by incubation in drug free medium for 24 hrs by MTT assay in presence of nitric oxide synthase inhibitor L-NMMA; format: functional, cell-based; settings: HCT-116, light or radiation study
[10] = test system: HCT-116; assay: Phototoxicity against human HCT116 cells […] after 24 hrs irradiated with tungsten-halogen white light for 2 hrs followed by incubation in drug free medium for 24 hrs by MTT assay; format: functional, cell-based; settings: HCT-116, light or radiation study
[11] = test system: HCT-116; assay: Induction of ROS generation in human HCT116 cells at IC50 after 24 hrs irradiated with tungsten-halogen white light for 2 hrs followed by incubation in drug free medium for 24 hrs by flow cytometry; format: functional, cell-based
[12] = test system: HCT-116; assay: Induction of NO radical generation in human HCT116 cells at IC50 after 24 hrs irradiated with tungsten-halogen white light for 2 hrs followed by incubation in drug free medium for 24 hrs; format: functional, cell-based

| SMILES | Activity [1] | Activity [2] | Activity [3] | Activity [4] | Activity [5] | Activity [6] | Activity [7] | IC50 [8] | IC50 [9] | IC50 [10] | Activity [11] | Activity [12] |
| --- | --- | --- | --- | --- | --- | --- | --- | --- | --- | --- | --- | --- |
| C1=Cc2nc1cc1ccc([nH]1)c(-c1ccccc1)c1nc(cc3ccc([nH]3)c2-c2ccccc2)C=C1 | 17.89% | 52.83% | Active | 29.27% | Active | Active | Active | – | – | – | – | – |
| COc1cccc(-c2c3nc(cc4ccc([nH]4)c(-c4ccccc4)c4nc(cc5ccc2[nH]5)C=C4)C=C3)c1 | 17.93% | 52.4% | Active | 29.6% | Active | Active | Active | – | – | – | – | – |
| Oc1cccc(-c2c3nc(c(-c4cccc(O)c4)c4ccc([nH]4)c(-c4cccc(O)c4)c4nc(c(-c5cccc(O)c5)c5ccc2[nH]5)CC4)C=C3)c1 [TEMOPORFIN] | 21.29% | 51.53% | Active | 27.17% | Active | Active | Active | 41 nM | – | – | – | – |
| Oc1cccc(-c2c3nc(cc4ccc([nH]4)c(-c4ccccc4)c4nc(cc5ccc2[nH]5)C=C4)CC3)c1 | – | – | – | – | – | – | – | 1.32 nM | – | – | – | – |
| Oc1cccc(-c2c3nc(cc4ccc([nH]4)c(-c4ccccc4)c4nc(cc5ccc2[nH]5)C=C4)C=C3)c1 | 21.28% | 49.03% | Active | 29.69% | Active | Active | Active | 3.96 nM | 0.482 ng/mL | 0.683 ng/mL (≈ 1.43 nM) | Active | Active |
